This test concerns the target T1, AMPK (A1/B1/G3) (Homo sapiens, UniProt Q13131).
T1 construct: purchased Thermo Fisher Scientific (Life Technologies) SelectScreen
In words: SelectScreen LanthaScreen. It counts as binding. Conditions: read-out: % displacement. In short, it runs like this: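 SelectScreen broad panel; activity (Z'LYTE, Adapta) plus binding formats. ATP: Km app for CSF1R Z'LYTE; 10 for CAMK1 Adapta. Readout = % per kinase.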
For orientation: In TR-FRET formats the signal depends on donor and acceptor labels being close together.

T1 sequence (Q13131 whole entry): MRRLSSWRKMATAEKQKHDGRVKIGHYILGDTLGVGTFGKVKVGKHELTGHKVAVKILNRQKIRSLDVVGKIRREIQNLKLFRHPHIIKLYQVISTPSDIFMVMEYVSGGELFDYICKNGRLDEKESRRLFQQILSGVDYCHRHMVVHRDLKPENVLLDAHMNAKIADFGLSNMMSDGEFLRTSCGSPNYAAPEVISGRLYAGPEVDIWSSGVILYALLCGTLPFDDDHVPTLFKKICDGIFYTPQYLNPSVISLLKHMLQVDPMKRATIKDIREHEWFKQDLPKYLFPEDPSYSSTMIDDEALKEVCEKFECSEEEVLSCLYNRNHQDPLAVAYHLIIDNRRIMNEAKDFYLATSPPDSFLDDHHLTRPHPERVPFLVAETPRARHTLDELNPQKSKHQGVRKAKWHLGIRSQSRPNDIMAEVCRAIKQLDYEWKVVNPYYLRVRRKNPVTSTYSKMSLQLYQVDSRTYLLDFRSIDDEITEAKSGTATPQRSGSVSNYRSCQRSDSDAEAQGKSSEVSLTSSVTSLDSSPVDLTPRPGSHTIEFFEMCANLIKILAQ
T1 sequence (Q9Y478 whole entry partner): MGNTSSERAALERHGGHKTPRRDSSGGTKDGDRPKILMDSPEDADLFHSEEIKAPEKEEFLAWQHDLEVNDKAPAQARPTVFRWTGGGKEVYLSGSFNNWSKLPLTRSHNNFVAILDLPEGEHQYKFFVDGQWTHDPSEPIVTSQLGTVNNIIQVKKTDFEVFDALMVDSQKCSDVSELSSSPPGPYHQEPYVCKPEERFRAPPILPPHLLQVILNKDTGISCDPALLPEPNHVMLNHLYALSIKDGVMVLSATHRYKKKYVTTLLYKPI
T1 sequence (Q9UGI9 whole entry partner): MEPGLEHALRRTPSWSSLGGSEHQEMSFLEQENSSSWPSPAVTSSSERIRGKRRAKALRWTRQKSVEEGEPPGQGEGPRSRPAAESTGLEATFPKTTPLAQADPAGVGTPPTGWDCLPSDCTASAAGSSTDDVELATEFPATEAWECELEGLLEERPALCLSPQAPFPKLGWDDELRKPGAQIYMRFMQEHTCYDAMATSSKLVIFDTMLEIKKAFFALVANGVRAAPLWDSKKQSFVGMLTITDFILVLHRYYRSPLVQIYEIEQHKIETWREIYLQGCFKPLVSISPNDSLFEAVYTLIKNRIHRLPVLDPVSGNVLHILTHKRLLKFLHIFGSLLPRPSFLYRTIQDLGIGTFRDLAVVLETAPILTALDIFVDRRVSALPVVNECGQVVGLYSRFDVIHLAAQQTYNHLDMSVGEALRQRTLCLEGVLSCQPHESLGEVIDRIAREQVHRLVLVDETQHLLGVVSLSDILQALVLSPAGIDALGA

Take `CN(C(=O)CN1CCOCC1)c1ccc2sc3c(-c4cccc5c(=O)cc(N6CC7CCC(C6)O7)oc45)cccc3c2c1` [NU5455]: the inhibition at 1 µM was 0.2%.

The values are drawn from paper PMC6934184, “Selective DNA-PKcs inhibition extends the therapeutic index of localized radiotherapy and chemotherapy” (The Journal of Clinical Investigation, 2019).
